From US10426777B2, “Methods used to treat cancer” (THE TRANSLATIONAL GENOMICS RESEARCH INSTITUTE, priority 2009, dated 2019)

What was measured:
TNFR1 = TNFR1 expression in glioma cells by Western blot; type: cell-based, Human; conditions: T98G, GBM10 and GBM43 cells, 5 μM PPF, 24 hours
Protocol: (§1) FIGS. 24A-24D illustrate that PPF treatment decreases TROY expression in GBM cells. FIG. 24A—a Western blot analysis of TROY expression in T98G cells. Cells were treated with PPF at indicated concentrations for 6 hrs, lysed, and cell lysates immunoblotted with anti-TROY antibody. Immunoblotting of α-Tubulin in cell lysates is included as a loading control. FIG. 24B—Western blot analysis of TROY expression in T98G, GBM43, and GBM10 cells. Cells were treated with PPF at indicated concentrations for 24 hrs, lysed, and cell lysates immunoblotted with anti-TROY and α-Tubulin antibodies. FIG. 24C—Western Blot analysis of TROY expression in GBM10 and GBM43 primary glioma cells. Cells were treated with 5 μM PPF, lysed at the indicated time-points, and the lysates immunoblotted with an anti-TROY antibody. Immunoblotting of β-Actin in cell lysates is included as a loading control. […]
(§2) Referring now to FIGS. 24A, 24B, 24C, and 24D: The inventors investigated if PPF could be utilized pharmacologically to decrease TROY expression in GBM cells. […] Cells were treated with increasing concentration of PPF, 1 to 20 μM, lysed, and TROY expression assessed by immunoblotting. […] Protein concentrations were determined using the BCA Assay (Pierce). […] Protein bands were detected using SuperSignal Chemiluminescent Substrate (Pierce) with a UVP BioSpectrum 500 Imaging System.

NF-κB = NF-κB activation (phosphorylation) by immunoblot; type: cell-based, Human; conditions: T98G and GBM43 cells; PPF 5 μM
Protocol: (§3) FIGS. 26A-26C depict that PPF sensitizes GBM cells to TMZ and radiotherapy. FIG. 26A—A clonogenic assay was used to assess T98G and GBM43 cells survival after TMZ and radiation treatment. Cells were pre-treated with 5 μM PPF for 24 hours, and then either treated with 250 μM TMZ for 24 hours or exposed to 2 Gy radiation. Graph depicts the surviving fraction in the treated cells compared to vehicle (VC) treated or non-treated (NT) cells, **p<0.01. FIG. 26B—T98G glioma cells were treated with vehicle, PPF (5 μM), TMZ (250 μM), and PPF in combination with TMZ. TMZ-induced apoptosis was assayed by immunoblot analysis of cell lysates with an antibody to cleaved PARP. Immunoblotting for α-Tubulin was included as a loading control. FIG. 26C—T98G, GBM10, and GBM43 cells were treated with PPF (5 μM), lysed, and then immunoblotted to assess the activation of AKT and NF-κB. Immunoblotting for […] is included as a loading control.
(§4) Referring now to FIGS. 26A, 26B, and 26C: Knockdown of TROY expression with shRNA decreases TMZ resistance in GBM cells in vitro (See Reference 42). […] Following combination therapy, cells were trypsinized, counted, and plated in a 6-well culture dish at densities of 100, 250, and 500 cells per well in triplicate. Cells were incubated for 12 days then fixed, stained with 0.5% crystal violet solution, and counted manually by blinded observers. […]

cleaved PARP = experiment: Apoptosis by immunoblot for cleaved PARP; type: cell-based, Human; conditions: T98G cells; PPF 5 μM, TMZ 250 μM
Protocol: as §3, §4

TROY [1] = conditions: Reference 41; cited from earlier work
[2] = test system: T98G, GBM10, and GBM43 cells; experiment: CellTiterGlo glioma cell cytotoxicity / viability assay; type: cell-based, Human; conditions: all three GBM cell lines; PPF 0.5 to 20 μM; 72 hours
Protocol: (§5) FIG. 25A—T98G, GBM43, and GBM10 cells were incubated with increasing concentrations of PPF (0, 5, 50, and 500 μM). After 0, 48, 96 and 144 hours of treatment, cell were trypsinized and counted using an automated cell counter. FIG. 24B—GBM43, GBM10, and T98G glioma cells were treated with increasing doses of PPF (0.5, 1, 5, 10, and 20 μM) in triplicate. The Cell Titer Glo (Promega) reagent was used to measure survival. Raw values were normalized on a plate-by-plate basis such that 100% cell viability was equivalent to the mean of vehicle wells and 0% cell viability was equivalent to the mean of the MG132 positive control. The normalized data was used to assess viability of glioma cells after PPF treatment.
(§6) Referring now to FIGS. 25A and 25B: To determine if PPF influences glioma cell proliferation, the inventors treated T98G, GBM10, and GBM43 cells with increasing concentrations of PPF and evaluated cell proliferation over the course of 144 hours. Briefly, 1.25×10^5 cells were seeded (n=3) in 12-well plates in 1 mL of DMEM supplemented with 10% FBS and allowed to attach at 37° for 16 hrs. […] After 0, 48, 96 and 144 hours of treatment, the cells were trypsinized and counted using the automated cell counter. […] Subsequently, 100 μL of CellTiterGlo® reagent was added to each well and luminescence was measured using Envision Reader. […]

[3] = clinical trials, cited from earlier work
[4] = test system: T98G, GBM10, and GBM43 cells; experiment: Glioma cell proliferation by automated cell counting; type: cell-based, Human; conditions: doses up to 500 μM, 0-144 hours
Protocol: as §5, §6

[5] = test system: T98G, GBM10, and GBM43 cells; experiment: Lamellipodia formation and membrane ruffling (F-actin staining); type: cell-based, Human; conditions: 5 μM PPF 1 hour, then 10% FBS 5 min
Protocol: FIGS. 28A and 28B depict that PPF suppresses GBM cell membrane ruffling. FIG. 28A—GBM43 cells were preincubated with 5 μM PPF or vehicle for 1 hour prior to 10% FBS stimulation for 5 min. After FBS stimulation, cells were fixed, permeabilized, and stained for F-actin. For each experimental condition, at least 12 images were taken randomly. Arrowhead indicates membrane ruffles. FIG. 28B—Graph depicts the average lamellipodia in T98G, GBM10, and GBM43 cells in the presence or absence of 10% FBS with or without 5 μM PPF as indicated. Lamellipodia were traced using Image J software.
Referring now to FIGS. 28A and 28B: The inventors investigated lamellipodia formation and membrane ruffling. Briefly, glioma cells were plated onto 10-well glass slides pre-coated with 10 μg/ml laminin at the density of 3000 cells/well for 24 hours at 37° C. Subsequently, cells were serum starved for 16 hours. The cells were pre-incubated with 5 μM PPF or vehicle for 1 hour prior to 10% FBS stimulation for 5 min. After FBS stimulation, cells were fixed in 4% PFA, permeabilized with 0.1% Triton X-100, and incubated with Alexa Fluor® 555 Phalloidin (Invitrogen) to stain for F-actin. Slides were mounted with ProLong® reagent with DAPI and imaged using a Zeiss LSM 510 microscope. For each experimental condition, at least 12 images were randomly taken. Lamellipodia were traced using ImageJ software.

microglia = conditions: Reference 41; cited from earlier work
T98G and GBM43 cells = experiment: Clonogenic survival assay with TMZ or radiation; type: cell-based, Human
Protocol: as §3, §4

Rac1 = Rac1 activation assay after FBS stimulation; type: cell-based, Human; conditions: T98G cells; 5 μM PPF 1 hour, then 10% FBS 2-10 mins
Protocol: (§7) FIGS. 27A and 27B depict that PPF suppresses GBM cell invasion and Rac1 activation. FIG. 27A—T98G, GBM10, and GBM43 glioma cells were treated with 5 μM PPF and invasion was assayed over 24 hours utilizing a Matrigel invasion assay, *p<0.05. FIG. 27B—T98G glioma cells were serum starved, pre-incubated with 5 μM PPF or vehicle for 1 hour, and then stimulated with 10% FBS for 2-10 mins. Cell lysates were harvested and equal concentrations of protein were assessed for Rac1 activation.
(§8) Referring now to FIGS. 27A and 27B: The inventors next examined whether PPF inhibited TROY dependent glioma cell invasion. […] Briefly, 5.0×10^5 glioma cells were seeded in 100-mm diameter culture dishes and incubated overnight at 37° C. Subsequently, cells were serum starved for 16 hours at 37° C. Cells were then harvested, re-suspended in growth factor reduced Matrigel (Becton Dickinson) (1.0×10^5 cells/50 uL), added in triplicates to collagen-coated transwell chambers, and allowed to invade through Matrigel in presence of 10% FBS and/or 5 μM PPF. After incubation for 24 hours at 37° C., non-invaded cells were scrapped off the upper side of the membrane and cells invaded to the other side of the membrane were fixed with 4% paraformaldehyde (PFA) (Affymetrix) and stained with DAPI (Invitrogen). Nuclei of invaded cells were counted in five high power fields (HPF) with a 20× objective.

TROY [6] = experiment: TROY expression in GBM cells by immunoblotting (Western blot); type: cell-based, Human
Protocol: FIGS. 24A-24D illustrate that PPF treatment decreases TROY expression in GBM cells. FIG. 24A—a Western blot analysis of TROY expression in T98G cells. Cells were treated with PPF at indicated concentrations for 6 hrs, lysed, and cell lysates immunoblotted with anti-TROY antibody. Immunoblotting of α-Tubulin in cell lysates is included as a loading control. FIG. 24B—Western blot analysis of TROY expression in T98G, GBM43, and GBM10 cells. Cells were treated with PPF at indicated concentrations for 24 hrs, lysed, and cell lysates immunoblotted with anti-TROY and α-Tubulin antibodies. FIG. 24C—Western Blot analysis of TROY expression in GBM10 and GBM43 primary glioma cells. Cells were treated with 5 μM PPF, lysed at the indicated time-points, and the lysates immunoblotted with an anti-TROY antibody. Immunoblotting of β-Actin in cell lysates is included as a loading control. FIG. 24D—Western Blot analysis of T98G, GBM10 and GBM43 glioma cells treated with 5 μM PPF for 24 hours. Lysates were immunoblotted with anti-TROY, anti-TNFR1, anti-EGFR, and β-Actin antibodies.
Cell Culture Conditions: Human glioma cell line T98G (ATCC) was maintained in DMEM with high glucose (Invitrogen) supplemented with 10% heat-inactivated fetal bovine serum (FBS) (Invitrogen) in a 37° C., 5% CO2 atmosphere at constant humidity. The primary glioma patient derived xenograft (PDX) lines GBM10 and GBM43 were derived from patient surgical samples and maintained as flank xenografts in immunodeficient mice. GBM10 and GBM43 flank tumor were resected, brought to single cell suspension via mechanical dissociation, and maintained in DMEM+10% FBS for in vitro experiments. In the experiments with FBS stimulation, the cells were serum starved (DMEM+0.1% Bovine Serum Albumin (BSA)) for 16 hours before stimulation with 10% FBS in DMEM.
Referring now to FIGS. 24A, 24B, 24C, and 24D: The inventors investigated if PPF could be utilized pharmacologically to decrease TROY expression in GBM cells. The long-term established cell line T98G was first utilized to test the efficacy of PPF. Cells were treated with increasing concentration of PPF, 1 to 20 μM, lysed, and TROY expression assessed by immunoblotting. Briefly, monolayers of cells were washed in phosphate-buffered saline (PBS) containing 1 mM phenylmethylsulfonylfluoride and 1 mM sodium orthovanadate and then lysed in 2×SDS sample buffer containing protease and phosphatase inhibitors. Protein concentrations were determined using the BCA Assay (Pierce). Thirty micrograms of total protein was loaded per lane and separated by SDS-PAGE. […] Protein bands were detected using SuperSignal Chemiluminescent Substrate (Pierce) with a UVP BioSpectrum 500 Imaging System.

AKT = AKT activation (phosphorylation) by immunoblot; type: cell-based, Human; conditions: T98G and GBM43 cells; PPF 5 μM
Protocol: as §3, §4

CNS-1 rat model = conditions: systemic PPF treatment, via modulation of microglia; cited from earlier work
EGFR = EGFR expression in glioma cells by Western blot; type: cell-based, Human; conditions: T98G, GBM10 and GBM43 cells, 5 μM PPF, 24 hours
Protocol: as §1, §2

[7] = test system: T98G, GBM10, and GBM43 glioma cells; experiment: Matrigel invasion assay; type: cell-based, Human; conditions: 5 μM PPF, 24 hours, 10% FBS
Protocol: as §7, §8

CCCn1cnc2c1c(=O)n(CCCCC(C)=O)c(=O)n2C [PPF, 3-methyl-1-(5-oxohexyl)-7-propyl-3,7-dihydro-1H-purine-2,6-dione]
TNFR1 expression (TNFR1): did not affect
NF-κB phosphorylation (NF-κB): effectively decreased
cleaved PARP, PPF and TMZ compared to TMZ alone (cleaved PARP): increase
TROY expression in microglia (TROY [1]): decreasing
cell viability [2]: negligible loss of cell viability
therapeutic efficacy ([3]; Alzheimer's disease and vascular dementia): therapeutic efficacy
side effect profile ([3]; Reference 39): minimal side effect profile
proliferation of glioma cells [4]: did not affect
lamellipodia formation and membrane ruffling [5]: significantly decreased
migration of microglia (microglia): inhibit
surviving fraction, PPF and 2Gy radiation compared to 2Gy radiation alone (T98G and GBM43 cells; GBM cells, 5 μM PPF 24 hours then 2 Gy): significantly decreased
surviving fraction, PPF in combination with TMZ compared to TMZ alone (T98G and GBM43 cells; T98G and GBM43, 5 μM PPF 24 hours then 250 μM TMZ 24 hours): significantly decreased
Rac1 activation (Rac1): inhibited
TROY expression over time (TROY [6]; GBM10 and GBM43 cells, 5 μM PPF for varying lengths of time): decreased in a time-dependent manner
TROY expression (TROY [6]; T98G cells, 1 μM PPF, 6 hrs): significant suppression
TROY expression (TROY [6]; T98G cells, PPF 1 to 20 μM, 6 hrs): decreased in concentration dependent manner
TROY expression (TROY [6]; T98G, GBM10 and GBM43 cells, 5 μM PPF, 24 hrs): effective in lowering TROY expression
AKT phosphorylation (AKT): effectively decreased
tumor growth (CNS-1 rat model): decreased
EGFR expression (EGFR): did not affect
glioma cell invasion [7]: significantly inhibited
